Here are results for one compound from PMC8557901 (Microbiology Spectrum, 2021).

Molecules are shown by their SMILES. Where two headings read alike, the source gives them in different places.

As a reminder, the inhibition is the share of the control response that was lost under treatment. One may read the EC50 as the concentration that produces a half-maximal response. The CC50 is the concentration at which the toxic effect on the cells reaches its halfway point.

For data set [1], the system named is P. falciparum sporozoites invading primary human hepatocytes. Briefly: Hepatocyte invasion by preincubated P. falciparum sporozoites. The settings on record: Plasmodium falciparum, Hepatocyte, in Homo sapiens, sporozoites preincubated 1 h; for inhibition at 1 µM: read-out: inhibition of invasion of sporozoites into hepatocytes, 1 μM; for inhibition at 10 µM: read-out: inhibition of invasion of sporozoites into hepatocytes, 10 μM; for inhibition at 100 µM: read-out: inhibition of invasion of sporozoites into hepatocytes, 100 μM. As to the method:
(§1) On the day of infection, 3 · 10^4 sporozoites of P. falciparum, P. yoelii, and P. cynomolgi were added to their respective host cell cultures (human, murine, and simian). The infected culture plates were centrifuged for 10 min at 900 × g, allowing fast parasite sedimentation, and further incubated with serial dilutions of M1. Culture medium containing the appropriate drug concentration was refreshed daily, and cells were fixed at 48 h postinfection (p.i.) for infections with P. yoelii, 6 days p.i. for P. falciparum, or 8 days p.i. for P. cynomolgi. For the in vitro sporozoite invasion experiments, P. falciparum sporozoites were preincubated with 1, 10, and 100 μM M1 for 1 h at room temperature before hepatocyte infections. Three hours later, after sporozoite penetration into hepatocytes, cultures were washed and then further incubated with or without the presence of the drug during 6 days. DMSO was used as a negative control.
(§2) The number, size, and shape of the parasites were determined using a CellInsight high-content screening platform equipped with Studio HCS software (ThermoFisher Scientific). […] Host cell and parasite nuclei were labeled with DAPI (4′,6-diamidino-2-phenylindole). […] The custom script used for counting and measuring parasites first required identification of the objects based on a fluorescence intensity threshold. The object identity was then further validated based on size and morphological (shape) criteria. The presence of DAPI-associated fluorescence in the selected objects allowed their final selection and the rejection of false positives. […] The parasitic size reduction was calculated on the average object area using the total surface area of each selected object (μm^2).

Data set [2] relates to P. cynomolgi liver-stage parasites in simian primary hepatocytes. Kind of data set: In vitro liver-stage development, P. cynomolgi in simian primary hepatocytes. In kind it is cell-based, Plasmodium cynomolgi.
Excerpt: (§3) Primary human hepatocytes were isolated from liver segments obtained from adult patients undergoing partial hepatectomy (Service de Chirurgie Digestive, Hépato-Bilio Pancréatique, Hôpital Pitié Salpêtrière, Paris, France). Primary simian hepatocytes were isolated from liver segments collected from healthy Macaca fascicularis monkeys from CEA, Fontenay aux Roses, France. All hepatocytes were obtained using collagenase perfusion as previously described ([40]). […] Primary murine hepatocytes were isolated from liver segments collected from BALB/c mice. Human and murine hepatocytes were used directly after their isolation. Cells were seeded in 96-well plates (Falcon; Becton Dickinson Labware Europe, France) coated with collagen I (BD Bioscience, USA) at a density of 80,000 cells per well. […] For human hepatocytes, the complete medium was supplemented with 2% dimethyl sulfoxide (DMSO; Sigma-Aldrich, USA) before infection to preserve their differentiation.
as §1, §2

On the set-up of data set [3]: method as in PMID 25791675. The settings on record: cited from earlier work.
Data set [4] deals with P. yoelii liver-stage parasites in murine primary hepatocytes. Kind of data set: In vitro liver-stage development, P. yoelii in murine primary hepatocytes. It counts as cell-based, Plasmodium yoelii.
Excerpt: P. yoelii 230-GFP-Luc sporozoites are mutant parasites expressing a green fluorescent protein (GFP)-luciferase cassette generated by the gene out marker out (GOMO) strategy ([39]).
as §3, §1, §2

The subject of a further data set is HepG2 or CHO cell lines. On the set-up: method as in PMID 25791675. The settings on record: cited from earlier work.
The next data set concerns Plasmodium berghei. On the set-up: method as in PMID 25791675. The note with it: 2.5 mg/kg twice a day for 3 days; untreated group 9%; cited from earlier work.
A short description of the next data set: Microsomal stability. In kind it is in vitro ADME. The settings on record: pH 7.4; female mouse microsomes (CD-1), 37°C; read-out: half-life (t1/2). The protocol: The tested product and propranolol, used as a reference, were incubated in duplicate (reaction mixture volume of 0.5 ml) with female mouse microsomes (CD-1, 20 mg/ml; BD Gentest) at 37°C in a 50 mM phosphate buffer, pH 7.4, in the presence of MgCl2 (5 mM), NADP (1 mM), glucose-6-phosphate dehydrogenase (G6PD) (0.4 U/ml), and glucose-6-phosphate (5 mM). For the estimation of the intrinsic clearance, 50-μl aliquots were collected at 0, 5, 10, 20, 30, and 40 min and the reaction was stopped with 4 volumes of acetonitrile (ACN) containing the internal standard. After centrifugation at 10,000 × g for 10 min at 4°C, the supernatants were conserved at 4°C for immediate analysis or placed at −80°C in case of postponement of the analysis. Controls (time zero and final time point) in triplicate were prepared by incubation of the internal standard with microsomes denatured by acetonitrile. […] The chromatographic analysis, with a total duration of 4 min, was made with the following gradient: 0 < t < 0.2 min, 2% mobile phase B; 0.2 < t < 2 min, linear increase to 98% mobile phase B; 2 < t < 2.5 min, 98% mobile phase B; 2.5 < t < 2.6 min, linear decrease to 2% mobile phase B; 2.6 < t < 4 min, 2% mobile phase B. The quantification of each compound was obtained by converting the average of the ratios of the analyte/internal standard surfaces to the percentage of consumed product. […]

The mark [5] stands for this setting: cultures additionally treated until day 6.
[6] abbreviates: cultures then without drug for 6 days.

As to `Cc1ccc(-c2cc3nc(NC(C)(C)C)[nH]c(=O)c3s2)cc1` [Metabolite M1, 2-(tert-Butylamino)-6-(p-tolyl)thieno[3,2-d]pyrimidin-4(3H)-one], the inhibition at 1 µM in data set [1] (setting [5]) was determined as 80%; in data set [1] (setting [6]) it was 30%. Besides, the inhibition at 10 µM was 100% in data set [1] (setting [5]) and 60% in data set [1] (setting [6]). In addition, the results for the inhibition at 100 µM in data set [1] (setting [5]) and in data set [1] (setting [6]) were 100% and roughly 100%, respectively. Also, the “concentration from which liver-stage development was fully inhibited” value in data set [2] (P. cynomolgi in simian hepatocytes) came to 14 µM. The EC50 in data set [2] (Plasmodium cynomolgi, Hepatocyte, P. cynomolgi in simian primary hepatocytes (SH), mean ± SEM of triplicate experiments, read-out: EC50 against liver-stage parasites) turned out to be 1500 ± 300 nM; in data set [4] (Plasmodium yoelii, Hepatocyte, P. yoelii in murine primary hepatocytes (MH), mean ± SEM of triplicate experiments, read-out: EC50 against liver-stage parasites), 450 ± 100 nM. Besides, in data set [2] (all tested concentrations (0.1 to 50 μM)), the “activity on P. cynomolgi hypnozoites” value is on record as “not active”. In addition, the “SI (selectivity index)” value in data set [2] (hepatocyte CC50/EC50, P. cynomolgi (SH)) is reported as greater than 40; in data set [4] (hepatocyte CC50/EC50, P. yoelii (MH)), greater than 133. The “Size reduction at 10 μM (%)” value was 80% in data set [2] (parasite (schizont) size, 10 μM, P. cynomolgi (SH)) and 100% in data set [4] (parasite (schizont) size, 10 μM, P. yoelii (MH)). Also, in data set [3], the Ames test entry was “negative”. For the same compound, the CC50 with HepG2 or CHO cell lines is no less than 25 µM. In addition, in the data set on Plasmodium berghei, the “parasitemia at day 4” value was 4.9%. Also, the half-life in “Microsomal stability” worked out at 11 min.
